Measurements as given in patent US20050239889A1, “In vivo release of endogenous anti-microbial mediators by leukotriene B4 (LTB4) administration” (priority 2004, published 2005).

Legend:
α-Defensins [1] = experiment: Plasma α-Defensins (ELISA) after subcutaneous LTB4 administration to monkeys; type: in vivo, Macaca fascicularis; settings: macaques
Method: Two macaques (Macaca fascicularis) were used for the study. For subcutaneous injections, the areas to be injected were first shaved one day before dosing. Volumes of 0.075 mL (monkey IJI) or 0.1 mL (monkey JKN) of LTB4 solution were administered subcutaneously in the arm of the animal to compensate for slight difference between both monkeys. Venous blood samples were collected at various time points with all plasma isolation procedures performed at 4° C. Platelet-free plasma samples were stored at −80° C. until assayed for α-Defensins using a commercial ELISA kit (HyCult Biotechnology bv, The Netherlands). We next studied the change in plasmatic concentration of the antimicrobial peptides α-Defensins in monkeys following subcutaneous (s.c.) administration of LTB4. Monkeys were injected s.c. with 5,5 μg/kg or 50 μg/kg of LTB4 and blood samples were taken at various time points and used for (α-Defensins measurements in the plasma, using a commercial ELISA kit. The results obtained are presented in FIGS. 3A (5,5 μg/kg) and 3B (50 μg/kg). Two macaques (IJI and JKN) were injected subcutaneously with 5,5 μg/kg (A) or 50 μg/kg (B) of LTB4. Blood samples were collected at various time points and α-Defensins levels measured in plasma samples using a commecial ELISA kit. Overall, the data obtained indicate that α-Defensins levels in plasma remain relatively stable up to 15 minutes post-LTB4 administration. α-Defensins levels started to increase by 30 minutes and peaked at two hours post LTB4 administration. […] For monkeys that received 50 μg/kg, (α-Defensins levels remained at their highest up to 4 hours post injection, followed by a gradual decrease. In both sets (5,5 μg/kg and 50 μg/kg), the levels of α-Defensins remained above baseline values up to 6 hours following LTB4 delivery

MIP-1β = experiment: Plasma MIP-1β (ELISA) after intravenous LTB4 administration to human subjects, Phase I study; type: in vivo; settings: i.v.
Method: (§1) Plasma samples were obtained from 19 HIV-uninfected human volunteers taking part in a Phase I clinical study on the safety and tolerability of intravenously (i.v.) administered bolus of LTB4. In brief, 3 individuals received saline (placebo) and 16 (4 subjects/group) were administered LTB4 in doses ranging from 0.05 μg/kg to 50 μg/kg per day for 7 consecutive days. Venous blood was collected twice before injection (-5 and -2 minutes) to establish baseline values. Following the i.v. administration of saline or LTB4, blood samples were drawn at 0.5, 1, 2, 4, 6, and 24 hours post-injection into blood collection tubes, using EDTA as anti-coagulant. Immediately after blood collection, the samples were put on ice until processed. All plasma isolation procedures were carried out at 4° C. Plasma samples were stored at −80° C. until assayed by ELISA for α-Defensins (HyCult Biotechnology bv, The Netherlands) and MIP-β(Amersham/Pharmacia, Baie d'Urfé, Canada).
Considering that soluble anti-HIV factors include β-chemokines and that neutrophils are capable of producing MIP-1β, we measured the levels of this β-chemokine in plasma of individuals that received a placebo or LTB4 (same cohorts as mentioned above). Plasma samples from healthy subjects that received a placebo (n=3) or LTB4 (5 and 50 μg/kg [n=4 subjects/group]) were obtained at various time points before and after LTB4 injections. Data are expressed as mean ± […] of the mean of MIP-1β levels (pg/ml) for all subjects within each group. P values were determined by comparing the mean MIP-1β levels of each group that received LTB4 versus the placebo group at the same time points. *p<0.025. […] Plasma samples from subjects that received the 2 lowest doses of LTB4 were not tested for MIP-1β.

α-Defensins [2] = experiment: Plasma α-Defensins (ELISA) after intravenous LTB4 administration to human subjects, Phase I study; type: in vivo
Method: as §1
Healthy volunteers participating in a Phase I clinical study on the safety and tolerability of intravenously administered LTB4, were randomized into 5 groups: placebo (n=3), LTB4 0.05 μg/kg (n=4), LTB4 0.5 μg/kg (n=4), LTB4 5 μg/kg (n=4) and LTB4 50 μg/kg (n=4). LTB4 was administered once daily for 7 consecutive days and plasma samples (0-6 hours post-LTB4 administration) from all 19 volunteers were tested for the presence of α-Defensins using a commercial ELISA kit. The mean ± standard error of α-Defensins releases (ng/ml plasma) for each group are presented in FIG. 1 with statistical analysis performed using the placebos as control group. Healthy individuals received a placebo (3 subjects) or doses of LTB4 ranging form 0.05 μg/kg to 50 μg/kg (n=4 subjects/group). Plasma samples were obtained at various time points before and after LTB4 injections and the α-Defensin levels determined by ELISA. The data shown in FIG. 1 represent the mean ± standard error of α-Defensins (ng/mL plasma) of all subjects within each group. P values were determined by comparing the mean α-Defensin levels of each group that received LTB4 versus the placebo group at the same time points. *p<0.001; **p<0.05. Plasma samples obtained before placebo or LTB4 injections indicate that there were no significant differences in the basal levels of α-Defensins between the groups.

## CCCCC/C=C\C[C@@H](O)/C=C/C=C/C=C\[C@@H](O)CCCC(=O)O [LTB4, 5S,12R-dihydroxy-6,8,10,14(Z,E,E,Z)-eicosatetraenoic acid]
α-Defensins [1]; s.c., 50 μg/kg, followed by a gradual decrease
  time α-Defensins levels remained at their highest post injection: up to 4 hours
α-Defensins [1]; s.c., 5,5 μg/kg or 50 μg/kg
  time of peak α-Defensins levels post LTB4 administration: two
  time α-Defensins levels in plasma remain relatively stable post-LTB4 administration: up to 15 minutes
  time α-Defensins levels started to increase: 30 min
α-Defensins [1]; s.c., 5,5 μg/kg, experiment ended at hour 6
  course of α-Defensins levels after the peak: started to drop by the fourth hour and continued to do so up to hour 6
α-Defensins [1]; s.c., both 5,5 μg/kg and 50 μg/kg
  time levels of α-Defensins remained above baseline values following LTB4 delivery: up to 6 hours
MIP-1β; 5-50 μg/kg
  start of elevation in plasmatic MIP-1β levels post-LTB4 injection: 1 h
  time of maximal plasmatic MIP-1β levels post-LTB4 injection: 2 h
MIP-1β; 5-50 μg/kg, 6 hours
  MIP-1β plasmatic levels at 6 hours post-LTB4 administration: had returned to original levels
MIP-1β; 5 and 50 μg/kg groups, n=4 per group, p<0.025
  statistical significance of MIP-1β elevation versus placebo: statistical significance was observed only for those that received the highest dose of LTB4
α-Defensins [2]; i.v. bolus once daily for 7 days, 0.05 to 50 μg/kg, versus placebo group
  release of α-Defensins in plasma, dose dependence: triggered dose-dependent release of α-Defensins
α-Defensins [2]; i.v., 0.5 μg/kg
  increase in plasmatic α-Defensins: although not significant, caused a measurable increase in plasmatic α-Defensins
  time of maximal effect on plasmatic α-Defensins post-LTB4 administration: two
α-Defensins [2]; i.v., 5 μg/kg and 50 μg/kg
  time of peak α-Defensin levels: 2 h
  time to significant increase of α-Defensin release following LTB4 injections: 30 min
α-Defensins [2]; i.v., 5 μg/kg and 50 μg/kg, at 2 hours, p<0.001
  peak α-Defensin levels over the placebo group: 5-7 fold
α-Defensins [2]; i.v., 5 μg/kg and 50 μg/kg, p<0.05
  time α-Defensin levels remained above the control levels post-LTB4 administration: up to 6 hours
α-Defensins [2]; i.v., 24 hours
  α-Defensins levels 24 hours post-LTB4 administration: back to the pre-injection levels
α-Defensins [2]; i.v., lowest dose of LTB4 (0.05 μg/kg)
  α-Defensins release in plasma: did not significantly enhanced α-Defensins release
